Measured values published in patent US20110076331A1, “Use of Deuterium Oxide as an Elastase Inhibitor” (priority 2008, published 2011).

Tests used:
[1] = tested on: elastase activity in the blister fluid; experiment: Ex vivo bullous pemphigoid blister fluid: degradation of recombinant BP180 antigen; type: biochemical, human; settings: added to blister fluid; autoradiography after gel electrophoresis; vs untreated control
Procedure: The blister fluid in patients with bullous pemphigoid was sampled in an ex vivo model (Verraes et al., 2001). Recombinant radioactively-labeled BP180 antigen, the target antigen in this disease, was then added to the blister fluid and decay determined autoradiographically after gel electrophoresis. For inhibition of elastase activity in the blister fluid either D2O or the elastase inhibitor chloromethyl ketone was added to it. An untreated control served as comparison. Both with chloromethyl ketone and with D2O the degradation of the recombinant BP180 antigen could be inhibited, whereas the protein was almost completely degraded by the untreated blister fluid.

[2] = tested on: patients with type 1 sensitization and allergic rhinitis; experiment: Nasal spray in allergic rhinitis; type: in vivo, human; settings: isotonic saline using 70% D2O, 6 times a day, 14 days, vs H2O group
Procedure: A solution with D2O was prepared accordingly for application as nasal spray. […] The number of sneezing attacks was determined and the intensity of runny nose and nasal itching measured by visual analog scales as parameters. For this purpose a patient diary was used.
A solution with D2O was prepared according to example 21 for use as nasal spray. […] The number of sneezing attacks was determined as parameter and the intensity of runny nose and nasal itching were measured by visual analog scales. For this purpose a patient diary was used.

[3] = tested on: Syrian Gold hamsters; experiment: D2O instillation in an animal model of COPD (HNE-induced hemorrhage); type: in vivo, hamster
Procedure: To investigate the effect of D2O in a model for chronic obstructive pulmonary disease (COPD) male Syrian Gold hamsters (average weight 118 g±4 g) were divided into two groups (experimental group and control group) of 10 hamsters each. The animals of both groups were initially anesthetized intraperitoneally (ketamine 95 mg/kg and xylazine 17 mg/kg) and then intubated endotracheally with direct laryngoscopy. The experimental group received 250 μL of 0.9% NaCl solution based on D2O (98.5% deuterium enrichment) instilled, whereas 250 μL of a corresponding isotonic NaCl solution based on H2O was used in the control group. Each animal received after the end of this instillation a second instillation at a time interval of 30 minutes, which was identical for both groups: 100 μL of human neutrophil elastase (HNE, 500 μg/mL in sterile 0.9% NaCl solution). The animals were killed 4 hours (six animals per group) or 24 hours (four animals per group) after the last instillation (phenobarbital 70 mg/kg intraperitoneally).
For the animals killed 4 hours after instillation a BAL (bronchoalveolar lavage) was performed. 2.5 mL 0.9% NaCl solution was repeatedly instilled (total 3 times) for BAL and the hemoglobin concentration in the instillate then determined spectrophotometrically. The obtained value was used as a gauge for lung damage (hemorrhage) by human neutrophil elastase (HNE). For the control group an average hemoglobin value of 320±50 mOD (milli-optical density) was obtained. For the experimental group an average hemoglobin value of 170±20 mOD was measured.
For the animals killed 24 hours after instillation the lungs were removed, fixed in formalin and embedded in paraffin. Histologic longitudinal sections of the lungs in the direction of the lung hilus were prepared, stained and made visible with iron by means of an histochemical reaction (Berlin blue reaction), which serves as a gauge for the intensity of HNE-induced hemorrhage. The microscopic investigation of the sections gave the following result: […]

[4] = tested on: patients with leukocytoclastic skin vasculitis; experiment: Half-side gel experiment in leukocytoclastic skin vasculitis; type: in vivo, human; settings: D2O-containing gel on lower leg three times a day, 4 days; vs H2O gel
Procedure: Leukocytoclastic skin vasculitis is characterized by recurring behavior. A special feature of this dermatosis is destruction of cutaneous capillaries by an inflammatory process in which neutrophil granulocytes participate almost exclusively. To check the effect of D2O-containing gel on the extent of cutaneous lesions patients with leukocytoclastic skin vasculitis were treated in a half-side experiment. Either an H2O- or D2O-containing gel were applied in randomized fashion on the right or left lower leg three times a day. After a treatment time of 4 days the treatments was compared by means of a clinical score that evaluates the number and expression of vasculitis lesions.

[5] = tested on: Wistar rats; experiment: Animal model of infectious peritonitis (S. aureus ATCC 25923), peritoneal lavage; type: in vivo, rat; settings: peritoneal lavage 4 hours after S. aureus, vs isotonic saline
Procedure: Male Wistar rats received a catheter for peritoneal dialysis and for induction of peritonitis and for further peritoneal dialysis. A purulent peritonitis was produced by introduction of a suspension of S. aureus ATCC 25923 (1×10^9 c.f.u. in 0.5 mL). After 4 hours peritoneal lavage was carried out either with isotonic saline or with isotonic […]. After the death of the animals, but at the latest after 24 hours, bacterial infestation and the inflammatory reaction in the peritoneum were investigated histologically.

[6] = tested on: patients with Wegener's disease; experiment: D2O infusions in Wegener's granulomatosis (open study); type: in vivo, human; settings: 500 mL isotonic saline prepared with 70% D2O infused once a day over a week in addition to individual therapy; vs conventionally treated patients
Procedure: Activation of neutrophil granulocytes is assigned importance in the pathogenesis of Wegener granulomatosis. The disease activity can be determined by determining proteinase 3-antineutrophil cytoplasmic antibodies (PR3-ANCA).
In patients with Wegener's disease in an open study the effect of additional infusion of 500 mL of an isotonic saline solution prepared with 70% D2O was investigated once a day over a week in addition to individual systemic therapy in five patients. Determination of PR3-ANCA in the serum before and after 1 week after the last D2O infusion served as control parameter. Five patients in whom individual therapy was used exclusively without additional infusions served as comparison. […] This permits the conclusion that systemic use of D2O for adjunctive therapy of systemic vasculites is suitable.

[2H]O[2H] [D2O, deuterium oxide]
degradation of the recombinant BP180 antigen [1]: inhibited
sneezing attacks, intensity of runny nose and nasal itching (recorded parameters) [2]: significant reduction of the recorded parameters
average hemoglobin value in BAL ([3]; 250 μL 0.9% NaCl solution based on D2O instilled 30 minutes before HNE, animals killed 4 hours after instillation): 170±20 mOD
blue-stained cells in lung sections (Berlin blue reaction), intensity of HNE-induced hemorrhage ([3]; animals killed 24 hours after instillation, vs H2O control group): significantly smaller number of blue-stained cells
inhibition of the acute lung damage caused by elastase (hemorrhage) ([3]; instillation, from reduction in hemoglobin concentration in BAL vs H2O control group, 4 hours): 47%
clinical score (number and expression of vasculitis lesions) [4]: distinct reduction of the clinical score
inflammatory activity in the peritoneum ([5]; histology): lower inflammatory activity
number of bacteria in the quantitative culture [5]: reduced number of bacteria
PR3-ANCA values in the serum [6]: stronger reduction of PR3-ANCA values
